The values below come from US5677309A (priority 1996, dated 1997).

Counter-ions that a name gives are not always drawn.

One experiment concerns the target GABAa receptor (benzodiazepines (BDZ) receptor). Description: GABAa receptor (benzodiazepine receptor) binding assay, 3H-RO15-1788 [3H-Flumazenil] displacement in rat cortical tissue. As to conditions: 0.5 nM 3H-RO15-1788, 30 min at 4° C., pH 7.4.
`O=c1n(-c2ccccn2)nc2n1CNc1ccccc1-2` [Compound 13, 2-(2-Pyridyl)-5,6-dihydro-1,2,4-triazolo[4,3-c]quinazolin-3-one] registered a Ki of 63 nM.

In turn, `O=c1[nH]c2ccccc2c2nn(-c3ccccc3)c(=S)n12` [Compound 28, 2-phenyl-5,6-dihydro-5-oxo-6[H]-1,2,4-triazolo[4,3-c]quinazolin-3-thione] registered a Ki of 4.5 nM.

Compound `O=c1n(-c2ccccc2)nc2n1CNc1ccccc1-2` [Compound 2, 2-phenyl-5,6-dihydro-1,2,4-triazolo[4,3-c]quinazolin-3-one] yielded a Ki of 12 nM.

Regarding `O=c1[nH]c2ccccc2c2nn(-c3ccccn3)c(=O)n12` [Compound 5, 2-(2-Pyridyl)-5,6-dihydro-5-oxo-[6H]-1,2,4-triazolo[4,3-c]quinazolin-3-one], the inhibition constant Ki is 7.6 nM. This Ki is about 1.6-fold lower than that of the compound before.

Take `S=c1n(-c2ccccc2)nc2n1CNc1ccccc1-2` [Compound 29, 2-phenyl-5,6-dihydro-1,2,4-triazolo[4,3-c]quinazolin-3-thione]: affinity was put at a Ki of 636 nM.

Take `O=c1[nH]c2ccccc2c2nn(-c3ccccc3)c(=O)n12` [Compound 1, 2-phenyl-5,6-dihydro-5-oxo-[6H]-1,2,4-triazolo[4,3-c]quinazolin-3-one]: affinity was put at a Ki of 5.9 nM. This Ki lies about 110-fold lower than the previous one.

In turn, `O=c1n(-c2ccccc2)nc2n1CNC1=C2CCCC1` [Compound 31, 2-phenyl-5,6,7,8,9,10-hexahydro-1,2,4-triazolo[4,3-c]-quinazolin-3-one] gave an inhibition constant (Ki) of 8 nM.

Regarding `CN(C)Cc1ccc(-n2nc3n(c2=O)CNc2ccccc2-3)cc1` [Compound 21, 2-[4-(N,N-dimethylaminomethyl)phenyl]-5,6-dihydro-1,2,4-triazolo-[4,3-c]quinazolin-3-one hydrochloride], the Ki stood at 53 nM.

As to `O=c1[nH]c2c(c3nn(-c4ccccc4)c(=O)n13)CCCC2` [Compound 30, 2-phenyl-5,6-dihydro-5-oxo-[6H]-7,8,9,10-tetrahydro-1,2,4-triazolo[4,3-c]-quinazolin-3-one], affinity was put at a Ki of 4.5 nM. This Ki is about 12-fold lower than that of the compound before.

The next experiment concerns benzodiazepine receptor.
Test: not given
Particulars: Hunkeler et al., 1981; cited from earlier work.
For the compound imidazo[1,5-a][1,4]benzodiazepine, the “inhibition of benzodiazepine and beta-carboline binding” value is on record as “high affinity competitive inhibitor”.

Another experiment deals with benzodiazepine receptor.
Test: not given
Particulars: in animals and humans; by itself; cited from earlier work.
With imidazo[1,5-a][1,4]benzodiazepine, the intrinsic pharmacological activity entry was “little intrinsic pharmacological activity”.
